Data from US8937183B2, “Detection of hydrogen peroxide” (Promega Corporation, priority 2011, dated 2015).

Experiment: Generation of bioluminescence from luciferin borates upon treatment with hydrogen peroxide (luciferase light reaction)
Type: biochemical
Protocol: In this example, luciferin borates were incubated with hydrogen peroxide, and luciferin generation was measured using a light reaction catalyzed by luciferase. An increase in light output (bioluminescence) as a result of treatment of the luciferin borates with hydrogen peroxide indicates generation of luciferin as a result of the reaction with hydrogen peroxide.
1 M phosphate solutions (either 6.8 g of KH2PO4 (Fisher) or 11.4 g of K2HPO4 (Sigma) were dissolved in Nanopure water to 1 M) were diluted 1:5 with Nanopure water to produce 200 mM phosphate solutions. 200 mM phosphate buffers at pH 6.87, 7.41, 7.73, 8.04, and 9.18 were prepared. 4 mg/ml solutions of PBI 3048, 4013, 4424 and 4425 (FIG. 1) in DMSO (Fluka 41641) were made from solid powder.
Into two 96-well white, solid bottom luminometer plates (Promega Z3291) (labeled “A” and “B”), 50 μl of 200 mM phosphate buffer pH 6.87 was added to wells A1-H2; 50 μl of 200 mM phosphate pH 7.41 was added to wells A3-H4; 50 μl of 200 mM phosphate buffer pH 7.73 was added to wells A5-H6; 50 μl of 200 mM phosphate buffer pH 8.04 was added to wells A7-H8; and 50 μl of 200 mM phosphate buffer pH 9.18 was added to wells A9-H10.
50 μl of 4 mg/ml PBI 4013 in DMSO was diluted to 1.25 ml with Nanopure water, and 25 μl added to wells A1-D10 of plate A. 50 μl of 4 mg/ml PBI 4424 was diluted to 1.25 ml with Nanopure water, and 25 μl added to E1-H10 of plate A. 50 μl of 4 mg/ml PBI 3048 was diluted to 1.25 ml with Nanopure water, and 25 μl added to A1-D10 of plate B. 50 μl of 4 mg/ml PBI 4425 was diluted to 1.25 ml with Nanopure water, and 25 μl added to E1-H10 of plate B. 25 μl of Nanopure water was added to rows A and E of both plates. 17 μl of Nanopure water was added to rows B and F of both plates; and 8 μl of Nanopure water was added to rows C and G of both plates
A hydrogen peroxide solution (30% hydrogen peroxide, Sigma H1009-5 ml) was diluted to 60 μM hydrogen peroxide with Nanopure water, and 25 μl of the 60 μM hydrogen peroxide was added to rows D and H of both plates; 17 μl of […] hydrogen peroxide was added to rows C and G of both plates; and 8 μl of […] hydrogen peroxide was added to rows B and F of both plates. Both plates A and B were then gently mixed for 70 minutes.
A bottle of Reconstitution Buffer with Esterase (Promega V144B) was thawed and used to reconstitute a Luciferin Detection Reagent (Promega V859B) to create a reconstituted Luciferin Detection Reagent (“LDR”). 15 ml of 1 M HEPES buffer, pH 7.5 was mixed with 25 ml of the LDR, and 80 μl added to wells A1-H10 of two new luminometer plates (“R1” and “R2”).
Following incubation, 20 μl of the contents of wells A1-H10 of plate A was transferred to the same wells in plate R1, and 20 μl of A1-H10 of plate B was transferred to the same wells in plate R2. Plate R1 and R2 were then incubated at room temperature for 15 minutes, and bioluminescence was measured with a GloMax® luminometer (Promega Corp).
Bioluminescence from duplicate wells was averaged, and the average relative light units (RLUs) from samples containing peroxide were compared to those from the samples not containing peroxide incubated at the same pH (Table 1).

average relative light units (bioluminescence) (H2O2 0 μM, phosphate buffer pH 6.87, 70 minutes): 392,535 RLU
average relative light units (bioluminescence) (H2O2 0 μM, phosphate buffer pH 7.41, 70 minutes): 418,478 RLU
average relative light units (bioluminescence) (H2O2 0 μM, phosphate buffer pH 7.73, 70 minutes): 470,830 RLU
average relative light units (bioluminescence) (H2O2 0 μM, phosphate buffer pH 8.04, 70 minutes): 561,030 RLU
average relative light units (bioluminescence) (H2O2 0 μM, phosphate buffer pH 9.18, 70 minutes): 819,156 RLU
average relative light units (bioluminescence) (H2O2 5 μM, phosphate buffer pH 6.87, 70 minutes): 521,375 RLU
average relative light units (bioluminescence) (H2O2 5 μM, phosphate buffer pH 7.41, 70 minutes): 794,181 RLU
average relative light units (bioluminescence) (H2O2 5 μM, phosphate buffer pH 7.73, 70 minutes): 1,200,842 RLU
average relative light units (bioluminescence) (H2O2 5 μM, phosphate buffer pH 8.04, 70 minutes): 1,831,013 RLU
average relative light units (bioluminescence) (H2O2 5 μM, phosphate buffer pH 9.18, 70 minutes): 3,834,248 RLU
average relative light units (bioluminescence) (H2O2 10 μM, phosphate buffer pH 6.87, 70 minutes): 717,216 RLU
average relative light units (bioluminescence) (H2O2 10 μM, phosphate buffer pH 7.41, 70 minutes): 1,302,514 RLU
average relative light units (bioluminescence) (H2O2 10 μM, phosphate buffer pH 7.73, 70 minutes): 2,057,780 RLU
average relative light units (bioluminescence) (H2O2 10 μM, phosphate buffer pH 8.04, 70 minutes): 3,137,287 RLU
average relative light units (bioluminescence) (H2O2 10 μM, phosphate buffer pH 9.18, 70 minutes): 6,426,397 RLU
average relative light units (bioluminescence) (H2O2 15 μM, phosphate buffer pH 6.87, 70 minutes): 833,785 RLU
average relative light units (bioluminescence) (H2O2 15 μM, phosphate buffer pH 7.41, 70 minutes): 1,709,044 RLU
average relative light units (bioluminescence) (H2O2 15 μM, phosphate buffer pH 7.73, 70 minutes): 2,713,251 RLU
average relative light units (bioluminescence) (H2O2 15 μM, phosphate buffer pH 8.04, 70 minutes): 4,193,451 RLU
average relative light units (bioluminescence) (H2O2 15 μM, phosphate buffer pH 9.18, 70 minutes): 7,447,757 RLU
light signal increase upon addition of hydrogen peroxide (in words) (all pH values 6.87 to 9.18): increased strongly
SMILES: O=C(O)C1CSC(c2nc3ccc(OCc4ccc(B(O)O)cc4)cc3s2)=N1 (stereo not drawn) [PBI 3048]
